In brackets after ≈: the same amount, converted by molar mass. Read-outs that look alike come from different tables or passages of the source.
What was measured:
[1] = target: bovine intestinal alkaline phosphatase (Bos taurus (Bovine), UniProt P19111); assay: BiALP: conversion by bovine intestinal alkaline phosphatase; assay type: in vitro ADME; settings: 2 μM substrate, 100 ng/mL iALP, Tris pH 7.8, 37° C., 60 minutes; for [Intermediate A] or [Amprenavir]: parent formed
Method: Fosamprenavir and its parent compound (amprenavir) were purchased from Millipore Sigma (St. Louis, MO). Test compounds, Intermediate A, fosamprenavir, and amprenavir were each separately dissolved in dimethyl sulfoxide (DMSO) at a concentration of 10 mM to form stock solutions.
All other chemicals were purchased from Millipore Sigma (St. Louis, MO) and Thermo Fisher Scientific (Waltham, MA). […] Internal Standard/Quench (IS/Q) was 100 nM labetalol in 99:1 (v/v) acetonitrile/formic acid.
Incubations were performed with Tris buffer alone (0.1 M Tris-HCl pH 7.8 containing 1 mM MgCl2 and 1 mM ZnCl2) or the same Tris buffer further containing 100 ng/mL iALP (0.01 units/mL). Triplicate 100 μL aliquots of Tris buffer±iALP were warmed to 37° C. and the reactions were initiated by the addition of the test compound or fosamprenavir to obtain final substrate concentrations of 2 μM. Incubations were then continued at 37° C. At 60 minutes, reactions were terminated by the addition of 200 μl of IS/Q and mixed by pipette. […] Aliquots (150 μL) of the supernatants were transferred to fresh plates containing 150 μL of water. Aliquots (15 μL) of the diluted supernatants were analyzed by mass spectrometry as described below.
Quantification of the test compounds and fosamprenavir was performed by analyte/internal standard peak area ratios (PARs) with comparison to 2 μM Intermediate A and amprenavir, respectively. The LC instrumentation consisted of a Thermo Scientific Vanquish pump and a Thermo Hypersil Gold column (1.9 μm particle size, 2.1×50 mm). […] The MS instrument was a Thermo Q Exactive™ Plus operating in positive ionization mode with mass tolerance of 5 ppm and calibrated on a twice weekly basis.

PBS Stability Assay = assay type: physicochemical; settings: buffer, pH 7.4, 2 μM, phosphate buffered saline pH 7.4; read-out: PBS T½
Method: Reagents. Stock solutions of test compounds in dimethyl sulfoxide (DMSO) having a final concentration of 10 mM were prepared and used in all experiments. Sekisui XenoTech (Kansas City, KS) provided pooled intestinal S9 fractions. All other chemicals were purchased from Sigma-Aldrich (St. Louis, MO) or VWR (West Chester, PA). Internal Standard/Quench (IS/Q) used to stop reactions was 100 nM labetalol in (by volume) formic acid (1%) and acetonitrile (99%).
PBS Stability Assay: For each test compound, an aliquot of the test compound was added to phosphate buffered saline (137 mM NaCl, 2.7 mM KCl, 10 mM phosphate buffer), pH 7.4. The incubation was initiated by the addition of the test compound to PBS to a final concentration of 2 μM. At 0, 10, 20, 30, 60 and 120 min, 25 μL aliquots of the incubation mixture were transferred to plates containing 225 μl of IS/Q solution. After quenching, the plates were centrifuged at 3000×g for 30 minutes. 150 μL aliquots of each supernatant were transferred to new plates and 150 μL water was added. Aliquots (10 μL) of the prepared samples were analyzed on a Thermo Q-Exactive mass spectrometer as described below.
Liquid Chromatography-Mass Spectrometry: Quantification of test compounds and control substrate was performed by analyte/internal standard peak area ratio (PAR) values measured on a Thermo Q-Exactive mass spectrometer coupled to a Dionex UltiMate 3000 HPLC with a Leap Technologies HTC PAL autosampler. The column used for analysis was a Thermo Scientific Hypersil GOLD (1.9 μm particle size, 50×2.1 mm). Mobile phase A consisted of 0.1% (v/v) formic acid in water. Mobile phase B consisted of 0.1% (v/v) formic acid in acetonitrile. Elution of analytes was achieved by a series of linear gradients varying the proportions of A and B. The mass spectrometer was calibrated on a weekly basis and mass tolerance of 5 ppm was used.
Data Analysis. Metabolic stabilities were determined by measuring the rates of disappearance of test compound and positive control substrate. Data (% of substrate remaining) were plotted on a semi-log scale and fitted using an exponential decline model:
where • Ct% of substrate remaining at time=t • C0% of substrate remaining at time=0 • t time • T½ half-life • The Half-life (T½) is determined by the following equation:
[formula] • Assuming a first-order reaction, the slope (k) is extrapolated from the aforementioned plotted data.

Solubility in FaSSIF = settings: for solubility / solubility at 2 h: 23 °C, pH 6.5, fassif, thermodynamic from solid; for solubility: FaSSIF (pH 6.5) solubility
Method: Buffer Preparation: Fasted State Simulated Intestinal Fluid (FaSSIF): Simulated Intestinal Fluid (SIF) powder containing a complex of Taurocholate and Lecithin (4:1 molar ratio) was obtained from Biorelevant. 0.056 g of SIF powder was added to 25 mL of buffer, adjusted to pH 6.5, containing 0.011 g of NaOH (pellets), 0.099 g of NaH2PO4 (monohydrate), and 0.155 g of NaCl. The buffer was prepared with HPLC H2O. The SIE powder was stirred until completely dissolved and allowed to stand for 2 hours.
Test Compounds: Each test compound was placed in a vial containing approximately 7 mg of material. Aliquots were weighed out for each assay media at each time point to be analyzed. The buffer was added to each vial such that the final dose concentration of 5 mg/mL was achieved. Samples were then vortexed for 5-10 seconds.
The plate was sealed with a pierceable heat seal and analyzed by HPLC-UV.

HIV-1 IIIB strain = assay: MT-4 HIV Wild Type Virus Infection Assay (IIIB Virus); assay type: cell-based; settings: Human immunodeficiency virus 1, IIIB, MT4, 120 h, MT-4 cells acutely infected with HIV-1 IIIB, 5 day incubation, Cell-titer glo
Method: Test compounds and controls were serially diluted and spotted in replicate into 384 well black assay plates via acoustic transfer (Echo). MT-4 cells were grown in batch, centrifuged and resuspended into fresh CCM media (RPMI w/10% FBS, 1% PS) at 2×10^6 cells/ml. MT-4 cells were acutely infected with HIV-1 IIIB strain. The size of each infection mix was scaled by the number of sample plates to be tested. Each infection mix was transferred into 5 mL closed tubes and nutated rapidly on a shaker at 37° C. incubator for 1 hour. The infection mixes were then diluted 25× in fresh cell culture media and then added to assay plates at 40 μL per well using a ViaFlo 384 pipettor. After 5 day incubation at 37° C. in a CO2 incubator, assay plates were processed with Cell-titer glo reagent using a ViaFlo 384 with an addition/mixing program. Plates were read immediately on Envision reader. Assay signals were plotted and dose response curves generated to determine individual compound EC50s.

[2] = FaSSIF pH 6.5, dose 5 mg/mL, 2-hour incubation, ambient temperature

Sequence of bovine intestinal alkaline phosphatase (P19111 20-506): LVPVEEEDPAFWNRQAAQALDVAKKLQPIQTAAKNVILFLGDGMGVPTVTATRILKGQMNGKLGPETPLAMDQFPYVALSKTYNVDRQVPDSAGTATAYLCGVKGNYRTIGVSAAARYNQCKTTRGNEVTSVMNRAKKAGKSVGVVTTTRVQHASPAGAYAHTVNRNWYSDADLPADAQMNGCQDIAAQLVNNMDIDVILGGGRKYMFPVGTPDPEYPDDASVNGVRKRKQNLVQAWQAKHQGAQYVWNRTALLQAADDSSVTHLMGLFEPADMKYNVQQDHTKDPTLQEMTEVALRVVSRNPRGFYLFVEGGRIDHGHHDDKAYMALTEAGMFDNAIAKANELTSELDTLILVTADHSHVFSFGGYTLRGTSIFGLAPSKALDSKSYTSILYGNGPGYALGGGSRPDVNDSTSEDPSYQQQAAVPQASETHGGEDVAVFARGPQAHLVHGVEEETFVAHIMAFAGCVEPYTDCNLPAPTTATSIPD

Compound | [Compound] [1] | half-life at 2 μM (PBS Stability Assay) | FaSSIF (pH 6.5) solubility (Solubility in FaSSIF; [2]) | EC50 (HIV-1 IIIB strain; read-out: EC50) | solubility (Solubility in FaSSIF; [2]) | biALP Intermediate A or [Amprenavir] (% of total) [1] | [Intermediate A] or [Amprenavir] [1] | solubility at 2 h (Solubility in FaSSIF) | EC50 (HIV-1 IIIB strain)
COC(=O)N[C@H](C(=O)N[C@@H](Cc1ccc(C#Cc2cnc(N3CC4CCC(C3)N4C3COC3)nc2)cc1)[C@H](CN(Cc1c(F)cc(-c2ccn(C(F)F)n2)cc1F)NC(=O)[C@@H](NC(=O)OC)C(C)(C)C(F)(F)F)OC(=O)OC(C)OC(=O)CC(C)(C)c1c(CC(=O)O)cc(C)cc1OP(=O)(O)O)C(C)(C)C(F)(F)F (stereo in doubt) [Example 64] | 1271 nM | 8.43 h | 165 μg/mL | 11.1 nM | – | – | – | – | –
COC(=O)N[C@H](C(=O)N[C@@H](Cc1ccc(C#Cc2cnc(N3CC4CCC(C3)N4C3COC3)nc2)cc1)[C@H](CN(Cc1c(F)cc(-c2ccn(C(F)F)n2)cc1F)NC(=O)[C@@H](NC(=O)OC)C(C)(C)C(F)(F)F)OC(=O)OCOC(=O)CC(C)(C)c1c(OP(=O)(O)O)cc(C(=O)O)cc1C(=O)O)C(C)(C)C(F)(F)F [Example 1] | 1318.1 nM | 8.74 h | – | 7.6 nM | 5060 µg/mL (≈ 3220 µM) | – | – | – | –
COC(=O)N[C@H](C(=O)N[C@@H](Cc1ccc(C#Cc2cnc(N3CC4CCC(C3)N4C3COC3)nc2)cc1)[C@H](CN(Cc1c(F)cc(-c2ccn(C(F)F)n2)cc1F)NC(=O)[C@@H](NC(=O)OC)C(C)(C)C(F)(F)F)OC(=O)OCOC(=O)CC(C)(C)c1c(C)cc(C(=O)O)cc1OP(=O)(O)O)C(C)(C)C(F)(F)F [Example 2] | 1359.6 nM | 6.52 h | – | 2.1 nM | 680 µg/mL (≈ 440 µM) | – | – | – | –
COC(=O)N[C@H](C(=O)N[C@@H](Cc1ccc(C#Cc2cnc(N3CC4CCC(C3)N4C3COC3)nc2)cc1)[C@H](CN(Cc1c(F)cc(-c2ccn(C(F)F)n2)cc1F)NC(=O)[C@@H](NC(=O)OC)C(C)(C)C(F)(F)F)OC(=O)CC(C)(C)c1c(CC(=O)N(CCCC(=O)O)CC(=O)O)cc(C)cc1OP(=O)(O)O)C(C)(C)C(F)(F)F [Example 8] | 1709.4 nM | 7.11 h | – | – | – | 8.4 % of total | 157.3 nM | 3260 µg/mL (≈ 2000 µM) | 230 nM
COC(=O)N[C@H](C(=O)N[C@@H](Cc1ccc(C#Cc2cnc(N3CC4CCC(C3)N4C3COC3)nc2)cc1)[C@H](CN(Cc1c(F)cc(-c2ccn(C(F)F)n2)cc1F)NC(=O)[C@@H](NC(=O)OC)C(C)(C)C(F)(F)F)OC(=O)CC(C)(C)c1c(CC(=O)Nc2ccccn2)cc(C)cc1OP(=O)(O)O)C(C)(C)C(F)(F)F [Example 13, (5S,10S,11S,14S)-8-(4-(1-(difluoromethyl)-1H-pyrazol-3-yl)-2,6-difluorobenzyl)-11-(4-((2-(8-(oxetan-3-yl)-3,8-diazabicyclo[3.2.1]octan-3-yl)pyrimidin-5-yl)ethynyl)benzyl)-3,6,13,16-tetraoxo-5,14-bis(1,1,1-trifluoro-2-methylpropan-2-yl)-2,17-dioxa-4,7,8,12,15-pentaazaoctadecan-10-yl 3-methyl-3-(4-methyl-2-(2-oxo-2-(pyridin-2-ylamino)ethyl)-6-(phosphonooxy)phenyl)butanoate] | 1660.2 nM | 1.98 h | – | – | – | 0.1 % of total | 1.8 nM | – | 223 nM
COC(=O)N[C@H](C(=O)N[C@@H](Cc1ccc(C#Cc2cnc(N3CC4CCC(C3)N4C3COC3)nc2)cc1)[C@H](CN(Cc1c(F)cc(-c2ccn(C(F)F)n2)cc1F)NC(=O)[C@@H](NC(=O)OC)C(C)(C)C(F)(F)F)OC(=O)OCOC(=O)CC(C)(C)c1c(CC(=O)O)cc(C)cc1OP(=O)(O)O)C(C)(C)C(F)(F)F [Example 20] | 1351.2 nM | 6.5 h | – | 0.7 nM | 220 µg/mL (≈ 141 µM) | 48.6 % of total | 1276.2 nM | – | –
COC(=O)N[C@H](C(=O)N[C@@H](Cc1ccc(C#Cc2cnc(N3CC4CCC(C3)N4C3COC3)nc2)cc1)[C@H](CN(Cc1c(F)cc(-c2ccn(C(F)F)n2)cc1F)NC(=O)[C@@H](NC(=O)OC)C(C)(C)C(F)(F)F)OC(=O)CC(C)(C)c1c(CC(=O)N[C@@H](CC(=O)O)C(=O)O)cc(C)cc1OP(=O)(O)O)C(C)(C)C(F)(F)F [Example 23] | – | 11.7 h | – | – | – | – | – | 4540 µg/mL (≈ 2840 µM) | 204 nM
COC(=O)N[C@H](C(=O)N[C@@H](Cc1ccc(C#Cc2cnc(N3CC4CCC(C3)N4C3COC3)nc2)cc1)[C@H](CN(Cc1c(F)cc(-c2ccn(C(F)F)n2)cc1F)NC(=O)[C@@H](NC(=O)OC)C(C)(C)C(F)(F)F)OC(=O)CC(C)(C)c1c(CC(=O)NC(CCCC(=O)O)C(=O)O)cc(C)cc1OP(=O)(O)O)C(C)(C)C(F)(F)F (some centres unmarked) [Example 41] | 2074.8 nM | 5.02 h | – | – | – | – | – | – | 43.5 nM
COC(=O)N[C@H](C(=O)N[C@@H](Cc1ccc(C#Cc2cnc(N3CC4CCC(C3)N4C3COC3)nc2)cc1)[C@H](CN(Cc1c(F)cc(-c2ccn(C(F)F)n2)cc1F)NC(=O)[C@@H](NC(=O)OC)C(C)(C)C(F)(F)F)OC(=O)OCOC(=O)CC(C)(C)c1c(CC(=O)N2CCN(S(C)(=O)=O)CC2)cc(C)cc1OP(=O)(O)O)C(C)(C)C(F)(F)F [Example 84] | 1594.8 nM | 3.02 h | – | – | – | – | – | – | 3.9 nM

Source: patent publication US20250051375A1, “ANTI-HIV COMPOUNDS” (Gilead Sciences, Inc., priority 2023, published 2025)
